Legend:
[1] = Peroxide neutralization rate profile in Clear Care® lens case with platinum element; assay type: physicochemical
Excerpt: All of the peroxide neutralization data described herein was obtained with a hydrogen peroxide lens case provided in a contact lens care product package sold as Clear Care® by CibaVision. The Clear Care® product packages with the included lens case were purchased in the United States in 2009-10. Each of the hydrogen peroxide neutralization profiles and rate constants (as well as calculated the half-lives) stated herein and in the claims were obtained with a Clear Care® lens case.
The line plots shown in FIG. 5B is determined from the peroxide neutralization data of FIG. 5A over the initial 60 minutes, i.e. at time of 0, 5 min, 15 min, 30 min and 60 min. […] The pseudo first-order rate constant is determined from the slope of the line plots.
The peroxide neutralization rate profiles of select disinfecting solutions were determined as follows. […] Aliquots of the solution are removed at the stated time points and the concentration of hydrogen peroxide is determined by known analytical methods.
The aliquots of solution are titrated with 0.1N potassium permanganate in the presence of an acidic aqueous solution. […] The sample is placed in the system and analyzed using a built-in hydrogen peroxide determination method. […] Once an endpoint is determined the instrument calculates the hydrogen peroxide concentration of the sample. […]

[2] = Osmolality after peroxide neutralization; assay type: physicochemical; conditions: disinfecting solution with 3 wt. % urea hydrogen peroxide

SMILES	effect on the rate of peroxide neutralization ([1]; 0.1 wt. % or 1000 ppm)	effect on the rate of peroxide neutralization ([1]; 100 ppm)	osmolality of the solution following neutralization of the peroxide [2]
NCCS(=O)(=O)O [taurine]	much greater reduction in the rate of peroxide neutralization	very small effect on the rate of peroxide neutralization	
NC(N)=O.OO [urea hydrogen peroxide]			about 600 mOsmol/kg

— patent US8932646B2, “Peroxide contact lens care solution” (Bausch & Lomb Incorporated, priority 2010, dated 2015)
